The values that follow come from patent US8263623B2, “Triazol derivatives useful for the treatment of diseases” (Pfizer Inc., priority 2008, dated 2012).

Molecules are shown by their SMILES.

The target of experiment [1] is human adrenergic β2 receptor (Homo sapiens, UniProt P07550). Briefly: hβ2 cAMP assay: whole cell cAMP assay in CHO cells expressing the hβ2 receptor. The experiment is classed as cell-based. As to conditions: CHO cells recombinantly expressing human β2 receptor; for Emax: agonist efficacy, 100 nM Formoterol control; for EC50: agonist potency. The text has this:
(§1) [formula] where IC50 is the concentration of unlabelled drug which inhibits by 50% the specific radioligand binding. [L] is the free radioligand concentrations and KD and Ki are the equilibrium dissociation constants of the radioligand and unlabelled drug respectively. Functional Assessment of Agonist Potency and Efficacy Using a Whole cell cAMP Assay in CHO Cells Expressing the hβ2 Receptor Cell Culture
CHO (Chinese Hamster Ovary) cells recombinantly expressing the human adrenergic β2 receptor were maintained in growth media composed of F12:DMEM (Gibco 21331-020) containing 10% Foetal Bovine Serum (FBS: Sigma F4135), 10 μg/ml puromycin (Sigma P8833), 0.1 mg/ml Geneticin G418 (Sigma G7034) and 2 mM L-glutamine (Sigma G7513). The cells were kept in sterile conditions at 37° C., in an atmosphere containing 5% CO2.
Cells were harvested for assay when they reached 80-90% confluency using trypsin 0.25% (Sigma T4049) incubated with the cells for 5 min at 37° C. in an atmosphere containing 5% CO2. Detached cells were collected in warmed growth media (composition described above), and re-suspended in assay media (F12:DMEM (Gibco 21331-020) containing 1% Foetal Bovine Serum (FBS: Sigma F4135) and 2 mM L-glutamine (Sigma G7513)) to give a viable cell concentration of 0.25×10^6 cells/ml. 100 μl of this suspension was added to each well of a tissue culture treated 96 well view-plate (PerkinElmer 6005181) and the plate incubated in an atmosphere containing 5% CO2 at 37° C. overnight. The following day, cells were washed (4×200 μl, Skatron Skanstacker 300) with Phosphate Buffered Saline (PBS). The plates were then pat dried and the media replaced with 50 μl PBS plus 0.5 mM isobutylmethylxanthine (IBMX) (Sigma I5879) before returning to the incubator for 30 mins. The PBS plate wash procedure was repeated, followed by the addition of 50 μl PBS plus 0.5 mM IBMX and 50 μl PBS plus 2% DMSO and the plates returned to the incubator for 30 mins. Concentration ranges of test compounds were prepared in PBS containing 2% DMSO. The PBS plate wash procedure was repeated, and then 50 μl PBS plus 0.5 mM IBMX was added to the assay plates, followed by the addition of 50 μl of each compound test concentration to the appropriate well. 50 μl per well of 2% DMSO or 200 nM Formoterol was added to the control wells, giving a final assay concentration of 1% DMSO or 100 nM Formoterol. Plates were returned to the incubator for a further 30 mins. At the end of the incubation period the PBS plate wash procedure was repeated a final time as described above. The plates were pat dried and 30 μl per well PBS added followed by 40 μl per well cAMP II ED/Substrate mix and 40 μl per well cAMP II EA-Ab/lysis mix (DiscoverX 90-0034-03). The plates were then incubated in the dark for a minimum of 4 hours at room temperature. The plates were read using a Fusion plate reader (luminescence protocol, each well read for 1 second). Concentration effect curves were plotted and EC50 & Emax values determined using a 4-parameter sigmoid fit generated using an in-house data analysis programme. Formoterol and salmeterol were run in every assay as reference standards.
In general terms: cAMP levels reflect the balance of adenylyl cyclase and phosphodiesterase activity.

The target in experiment [2] is human muscarinic M3 receptor (Homo sapiens, UniProt P20309). Briefly: hM3 competition binding assay (3H-NMS) on CHO cell membranes. To be noted: 24 hr at RT, IC50 corrected by Cheng-Prussoff equation. The method, then:
Binding Affinity Assessment at the Human Recombinant M3 Muscarinic Receptor
Cell Pellets from CHO (Chinese Hamster Ovary) cells recombinantly expressing the human muscarinic M3 receptor were homogenised in 20 mM HEPES (pH7.4) and centrifuged at 48000×g for 20 min at 4° C. The pellet was re-suspended in buffer and the homogenisation and centrifugation steps repeated. The resulting pellet was re-suspended in 1 ml buffer per 1 ml original packed cell volume and the homogenisation step repeated. Protein estimation was carried out on the suspension and 1 ml aliquots of ˜1 mg/ml frozen at −80° C.
hM3 Competition Binding Assay Protocol
Membranes (5 μg/well) were incubated with ^3H-NMS (at a concentration 5×KD) plus/minus test compound for 24 hr at RT (room temperature) in a 1 ml polystyrene 96-well deep well block. The final assay volume was 200 μl, comprising of: 20 μl plus/minus test compound; 20 μt, ^3H-NMS (Perkin Elmer NEN 636) and 160 μl membrane solution. Total Binding was defined with 0.1% DMSO; Non-Specific Binding was defined with 1 μM Atropine. Assay buffer was 20 mM Hepes (pH 7.4).
Once all assay components were added, plates were covered and incubated at room temperature for 24 hrs with shaking. The assay was terminated by rapidly filtering through GF/B Unifilter plates pre-soaked with 0.5% polyethylenimine, using a Packard filtermate harvester, the filter plate was then washed with 3×1 ml 4° C. assay buffer. The filter plates were dried at 45° C. for 1 hour. The bottoms of the filter plates were sealed and 50 μl/well of Microscint ‘0’ added, the top of the plates were sealed with a Topseal. Following 90 mins, the plates were read on an NXT Topcount (1 minute read time per well).
The resulting data was expressed as a percentage of the specific binding (Specific binding=Total binding−Non-Specific Binding). % specific binding versus test compound concentration was plotted to determine an IC50 from a sigmoid curve using an in-house data analysis programme. IC50 values corrected to Ki values by applying the Cheng-Prussoff equation:
as §1

Sequence of human adrenergic β2 receptor (P07550 whole entry): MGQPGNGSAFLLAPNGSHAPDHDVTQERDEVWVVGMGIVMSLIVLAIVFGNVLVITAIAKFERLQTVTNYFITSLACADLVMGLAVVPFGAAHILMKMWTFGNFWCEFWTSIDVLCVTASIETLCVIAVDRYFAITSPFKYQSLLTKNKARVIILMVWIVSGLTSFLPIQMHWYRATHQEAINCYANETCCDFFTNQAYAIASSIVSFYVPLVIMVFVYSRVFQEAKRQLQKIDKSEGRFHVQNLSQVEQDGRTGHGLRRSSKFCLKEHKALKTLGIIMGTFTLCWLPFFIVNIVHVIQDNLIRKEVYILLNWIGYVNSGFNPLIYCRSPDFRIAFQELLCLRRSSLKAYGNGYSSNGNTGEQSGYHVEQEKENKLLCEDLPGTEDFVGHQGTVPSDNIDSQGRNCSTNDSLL
Sequence of human muscarinic M3 receptor (P20309 whole entry): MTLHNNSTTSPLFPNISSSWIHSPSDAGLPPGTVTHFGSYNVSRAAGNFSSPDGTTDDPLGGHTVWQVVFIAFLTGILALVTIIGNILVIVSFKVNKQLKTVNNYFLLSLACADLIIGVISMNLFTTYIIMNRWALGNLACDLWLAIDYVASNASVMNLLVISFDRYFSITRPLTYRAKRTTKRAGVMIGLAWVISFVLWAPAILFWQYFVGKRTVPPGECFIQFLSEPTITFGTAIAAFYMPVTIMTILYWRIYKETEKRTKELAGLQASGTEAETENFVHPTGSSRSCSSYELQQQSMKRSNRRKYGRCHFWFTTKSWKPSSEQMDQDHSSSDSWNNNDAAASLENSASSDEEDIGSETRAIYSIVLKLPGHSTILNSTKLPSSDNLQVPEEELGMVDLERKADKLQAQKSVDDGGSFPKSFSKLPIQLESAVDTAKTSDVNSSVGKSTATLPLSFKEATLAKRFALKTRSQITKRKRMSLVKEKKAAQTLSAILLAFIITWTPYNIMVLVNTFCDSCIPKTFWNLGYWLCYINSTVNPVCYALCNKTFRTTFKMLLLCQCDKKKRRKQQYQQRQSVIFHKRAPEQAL

A word on the Emax: it is the greatest response seen or fitted, relative to the assay's reference. The term EC50 denotes the concentration that produces a half-maximal response. A word on the Ki: it is a measure of affinity in units of concentration, obtained from inhibition or displacement. A high value points to lower affinity. As to `O=c1ccc2c([C@@H](O)CNCCCCCCCCCN3CCC(Cn4cnc(C(O)(c5ccccc5)C5CCCCC5)n4)CC3)ccc(O)c2[nH]1` (stereo partly drawn) [Example 3, 5-[(1R)-2-({9-[4-({3-[cyclohexyl(hydroxy)phenylmethyl]-1H-1,2,4-triazol-1-yl}methyl)piperdin-1-yl]nonyl}amino)-1-hydroxyethyl]-8-hydroxyquinolin-2(1H)-one], in experiment [1], the Emax worked out at 91% and the EC50 was determined as 20.6 nM. Besides, the Ki in experiment [2] came out at 0.924 nM.

As for `O=c1ccc2c([C@@H](O)CNCCc3ccc(CCN4CCC(Cn5cnc([C@](O)(c6ccccc6)C6CCCCC6)n5)CC4)cc3)ccc(O)c2[nH]1` [Example 2, 5-[(1R)-2-{[2-(4-{2-[4-({3-[(R)-cyclohexyl(hydroxy)phenylmethyl]-1H-1,2,4-triazol-1-yl}methyl)piperdin-1-yl]ethyl}phenyl)ethyl]amino}-1-hydroxyethyl]-8-hydroxyquinolin-2(1H)-one], in experiment [1], the Emax came to 106% and the EC50 worked out at 21.6 nM. Also, the affinity in experiment [2], expressed as Ki, was 0.153 nM.

Regarding `O=c1ccc2c([C@@H](O)CNCCCCCCCCCN3CCC(Cn4cnc([C@](O)(c5ccccc5)C5CCCCC5)n4)CC3)ccc(O)c2[nH]1` [Example 1, 5-[(1R)-2-({9-[4-({3-[(R)-cyclohexyl(hydroxy)phenylmethyl]-1H-1,2,4-triazol-1-yl}methyl)piperidin-1-yl]nonyl}amino)-1-hydroxyethyl]-8-hydroxyquinolin-2(1H)-one], in experiment [1], the Emax was found to be 103% and the EC50 was determined as 14 nM. This compound also displayed a Ki in experiment [2] of 0.57 nM.

On to `O=c1ccc2c([C@@H](O)CNCCc3ccc(CCN4CCC(Cn5cnc(C(O)(c6ccccc6)c6ccccc6)n5)CC4)cc3)ccc(O)c2[nH]1` [Example 5, 8-hydroxy-5-[(1R)-1-hydroxy-2-{[2-(4-{2-[4-({3-[hydroxy(diphenyl)methyl]-1H-1,2,4-triazol-1-yl}methyl)piperidin-1-yl]ethyl}phenyl)ethyl]amino}ethyl]quinolin-2(1H)-one], for which, in experiment [1], the Emax worked out at 95% and the EC50 amounted to 116 nM. Also, the Ki in experiment [2] is 2.49 nM.

With `O=c1ccc2c([C@@H](O)CNCCCCCCCCCN3CCC(Cn4cnc(C(O)(c5ccccc5)c5ccccc5)n4)CC3)ccc(O)c2[nH]1` [Example 4, 8-hydroxy-5-[(1R)-1-hydroxy-2-({9-[4-({3-[hydroxy(diphenyl)methyl]-1H-1,2,4-triazol-1-yl}methyl)piperdin-1-yl]nonyl}amino)ethyl]quinolin-2(1H)-one], in experiment [1], the Emax turned out to be 90% and the EC50 turned out to be 13 nM. The compound also came in with a Ki in experiment [2] of 0.505 nM.
